System: BMP7 induced pSMAD1/5/8 in BMPR2−/− and TGF-β1 induced pSMAD2
Assay: Western blot, BMP7 vs TGF-beta induced pSMAD in PASMCs
Assay type: cell-based, mice
Conditions: versus LDN-193189; BMPR2-deficient and wild type PASMCs; FIGS. 5b and 5c
Description: C2C12 […] cells stably transfected with BMP responsive element from the Idl promoter fused to luciferase reporter gene (BRE-Luc) and human embryonic kidney 293T cells stably transfected with the TGF-β responsive element from the PAI-1 promoter fused to luciferase reporter gene (CAGA-Luc) were cultured in DMEM (Life Technologies) supplemented with 10% FBS, L-glutamine, and pen/strep at 37° C. and 10% CO2. HepG2 human hepatoma cells (ATCC) were cultured in EMEM (Life Technologies) supplemented with 10% FBS, L-glutamine, and pen/strep at 37° C. and 10% CO2. C2C12 […] (ATCC) were cultured in DMEM (Life Technologies) supplemented with 10% FBS, L-glutamine, and pen/strep at 37° C. and 10% CO2. […]
Both WT and BMPR2^del/del PASMCs were seeded in 12-well plates (Falcon®; BD Biosciences) at 75% confluency (˜375,000 cells in 480 μL per well). […] The phosphorylation state of downstream effector proteins (pSMAD1/5/8 and pSMAD2 for BMP and TGF-β respectively) was measured by western blotting performed 30 minutes after ligand stimulation. Western blots were analyzed using ImageJ with positive controls at 100% ligand induced phospho-SMAD and negative controls being subtracted as background. […]

c1cc(-c2cnn3cc(-c4ccc(N5CCNCC5)cc4)cnc23)c2cccnc2c1 [LDN-212854]
selectivity, BMP7 induced pSMAD1/5/8 versus TGF-β1 induced pSMAD2: improved selectivity

From patent US20160115167A1, “BMP INHIBITORS AND METHODS OF USE THEREOF” (THE BRIGHAM AND WOMEN'S HOSPITAL, INC., priority 2013, published 2016)
